In ChEMBL document CHEMBL1136896, “Synthesis and biological evaluation of arylhydrazinocyanoacrylates and N-aryl pyrazolecarboxylates” (2009):

Key:
Assay type in all cases: functional
Brassica napus [1] = assay: Herbicidal activity against Brassica napus at 1.5 kg/hectare administered postemergence of first true leaf measured after 10 days; conditions: post-emergence, 240 h
Amaranthus retroflexus [2] = assay: Herbicidal activity against Amaranthus retroflexus at 1.5 kg/hectare administered postemergence of first true leaf measured after 10 days; conditions: post-emergence, 240 h
Medicago sativa [3] = assay: Herbicidal activity against Medicago sativa at 1.5 kg/hectare administered postemergence of first true leaf measured after 10 days; conditions: post-emergence, 240 h
Digitaria sanguinalis [4] = assay: Herbicidal activity against Digitaria sanguinalis at 1.5 kg/hectare administered postemergence of first true leaf measured after 10 days; conditions: post-emergence, 240 h
Amaranthus retroflexus [5] = assay: Herbicidal activity against Amaranthus retroflexus at 1.5 kg/hectare administered preemergence of first true leaf measured after 10 days; conditions: pre-emergence, 240 h
Medicago sativa [6] = assay: Herbicidal activity against Medicago sativa at 1.5 kg/hectare administered preemergence of first true leaf measured after 10 days; conditions: pre-emergence, 240 h
Digitaria sanguinalis [7] = assay: Herbicidal activity against Digitaria sanguinalis (L.) Scop. at 1.5 kg/hectare administered preemergence of first true leaf measured after 10 days; conditions: pre-emergence, 240 h
Fusarium graminearum = assay: Fungicidal activity against Gibberella zeae assessed as inhibition of mycelium growth at 50 mg/L after 72 hrs
Alternaria solani = assay: Fungicidal activity against Alternaria solani assessed as inhibition of mycelium growth at 50 mg/L after 72 hrs
Mycosphaerella arachidis = assay: Fungicidal activity against Cercospora arachidicola assessed as inhibition of mycelium growth at 50 mg/L after 72 hrs
[8] = system: Botryosphaeria berengeriana; assay: Fungicidal activity against Physalospora pyricola assessed as inhibition of mycelium growth at 50 mg/L after 72 hrs
Cladosporium cucumerinum = assay: Fungicidal activity against Cladosporium cucumerinum assessed as inhibition of mycelium growth at 50 mg/L after 72 hrs
Cucumis sativus = assay: Growth regulatory activity in cucumber assessed as root growth at 10 mg/L incubated in dark for 5 days
HL-60 [9] = assay: Antitumor activity against human HL60 cells at 1000 uM/L after 72 hrs by MTT assay; conditions: HL-60, 72 h
HL-60 [10] = assay: Antitumor activity against human HL60 cells at 100 uM/L after 72 hrs by MTT assay; conditions: HL-60, 72 h
HL-60 [11] = assay: Antitumor activity against human HL60 cells at 10 uM/L after 72 hrs by MTT assay; conditions: HL-60, 72 h
HL-60 [12] = assay: Antitumor activity against human HL60 cells at 1 uM/L after 72 hrs by MTT assay; conditions: HL-60, 72 h
Bel-7402 [13] = assay: Antitumor activity against human Bel7402 cells at 1000 uM/L after 72 hrs by MTT assay; conditions: Bel-7402, 72 h
Bel-7402 [14] = assay: Antitumor activity against human Bel7402 cells at 100 uM/L after 72 hrs by MTT assay; conditions: Bel-7402, 72 h
Bel-7402 [15] = assay: Antitumor activity against human Bel7402 cells at 10 uM/L after 72 hrs by MTT assay; conditions: Bel-7402, 72 h
Bel-7402 [16] = assay: Antitumor activity against human Bel7402 cells at 1 uM/L after 72 hrs by MTT assay; conditions: Bel-7402, 72 h
Brassica napus [17] = assay: Herbicidal activity against Brassica napus L. at 1.5 kg/hectare administered preemergence of first true leaf measured after 10 days; conditions: pre-emergence, 240 h

CCOCCOC(=O)/C(C#N)=C(\NNc1c(Cl)cc(Cl)cc1Cl)C(C)C
inhibition at 1500 g/ha (Brassica napus [1]): 0%
inhibition at 1500 g/ha (Amaranthus retroflexus [2]): 13.3%
inhibition at 1500 g/ha (Medicago sativa [3]): 21%
inhibition at 1500 g/ha (Digitaria sanguinalis [4]): 17.9%
inhibition at 1500 g/ha (Amaranthus retroflexus [5]): 0%
inhibition at 1500 g/ha (Medicago sativa [6]): 0%
inhibition at 1500 g/ha (Digitaria sanguinalis [7]): 0%
inhibition at 50 µg/mL (Fusarium graminearum): 4.8%
inhibition at 50 µg/mL (Alternaria solani): 10%
inhibition at 50 µg/mL (Mycosphaerella arachidis): 18.2%
inhibition at 50 µg/mL [8]: 6.7%
inhibition at 50 µg/mL (Cladosporium cucumerinum): 8.3%
Activity (Cucumis sativus): -2.2%
inhibition at 1000 µM (HL-60 [9]): 80.3%
inhibition at 100 µM (HL-60 [10]): 20.8%
inhibition at 10 µM (HL-60 [11]): 0%
inhibition at 1 µM (HL-60 [12]): 0%
inhibition at 1000 µM (Bel-7402 [13]): 84.3%
inhibition at 100 µM (Bel-7402 [14]): 9%
inhibition at 10 µM (Bel-7402 [15]): 12.7%
inhibition at 1 µM (Bel-7402 [16]): 5.2%
inhibition at 1500 g/ha (Brassica napus [17]): 0%
